# In paper PMC10812467, “Peroxidasin Inhibition by Phloroglucinol and Other Peroxidase Inhibitors” (Antioxidants, 2023):
# Where two headings read alike, the source gives them in different places.
# How the values were obtained:
# [1] = biological target: T1, PXDN Compound I (Homo sapiens, UniProt Q92626); assay: Sequential stopped-flow spectroscopy of PXDN Compound I with inhibitors; format: biochemical; details: 1 μM PXDN Compound I, pH 7.4, 25 °C
# T1 construct: the four immunoglobulin domains and the peroxidase domain (amino acid residue 246-1314); made in house; host or cells: transient transfection
# T1 sequence (Q92626 246-1314): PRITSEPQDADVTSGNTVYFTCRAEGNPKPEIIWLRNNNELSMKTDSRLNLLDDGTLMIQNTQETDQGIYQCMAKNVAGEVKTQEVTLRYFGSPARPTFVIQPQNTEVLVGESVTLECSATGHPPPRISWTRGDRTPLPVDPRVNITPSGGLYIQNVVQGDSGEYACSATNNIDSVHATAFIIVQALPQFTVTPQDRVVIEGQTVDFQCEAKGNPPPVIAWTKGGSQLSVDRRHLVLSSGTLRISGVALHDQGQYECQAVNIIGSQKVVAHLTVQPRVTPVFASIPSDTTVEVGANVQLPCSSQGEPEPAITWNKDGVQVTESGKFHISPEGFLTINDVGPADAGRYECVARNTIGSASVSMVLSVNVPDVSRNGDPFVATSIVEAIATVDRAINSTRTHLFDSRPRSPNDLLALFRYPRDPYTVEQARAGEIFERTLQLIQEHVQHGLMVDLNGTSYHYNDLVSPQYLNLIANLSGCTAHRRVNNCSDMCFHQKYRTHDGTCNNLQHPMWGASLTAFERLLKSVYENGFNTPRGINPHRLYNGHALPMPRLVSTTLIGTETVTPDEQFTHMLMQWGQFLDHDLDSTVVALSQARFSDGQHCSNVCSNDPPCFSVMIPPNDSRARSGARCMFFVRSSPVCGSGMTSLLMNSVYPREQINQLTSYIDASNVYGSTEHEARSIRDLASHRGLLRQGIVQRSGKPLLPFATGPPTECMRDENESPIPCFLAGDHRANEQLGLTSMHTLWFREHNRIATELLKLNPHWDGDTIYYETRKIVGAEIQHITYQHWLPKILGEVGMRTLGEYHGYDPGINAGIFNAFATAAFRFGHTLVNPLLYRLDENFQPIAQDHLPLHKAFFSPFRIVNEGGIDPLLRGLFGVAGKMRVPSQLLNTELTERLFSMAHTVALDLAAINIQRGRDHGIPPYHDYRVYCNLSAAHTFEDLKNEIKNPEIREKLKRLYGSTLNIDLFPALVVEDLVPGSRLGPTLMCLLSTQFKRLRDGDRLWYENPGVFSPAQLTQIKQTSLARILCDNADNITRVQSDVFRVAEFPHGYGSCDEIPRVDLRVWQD
# Procedure: Pre-steady-state spectra were recorded with the stopped-flow apparatus SX.18MV (Applied Photophysics Ltd, Leatherhead, UK) connected to a diode array detector (DAD), with the first spectrum recorded 14 ms after the mixing of the reactants. Due to the inherent instability of Compound I of PXDN, the sequential mixing mode was used to generate Compound I. Equal volumes of 4 μM PXDN and 4 μM hydrogen peroxide were mixed in the aging loop. […] Interconversion of redox intermediates of PXDN was monitored for 60 s. […] All reactions were performed in 100 mM phosphate buffer, pH 7.4, and at 25 °C. Time traces (410 nm to monitor Compound I and ferric PXDN, 432 nm for Compound II and 550 and 590 nm to monitor Compound III [46]) were extracted from the time-resolved spectra.
# [2] = biological target: T2, Human peroxidasin (PXDN) (Homo sapiens, UniProt Q92626); assay: Dansylglycine halogenation (bromination) activity assay; format: biochemical; details: 50 nM PXDN, 100 mM bromide; for inhibition at 24 µM: 24 μM inhibitor, 50 μM DG, 200 μM hydrogen peroxide, pH 7.4
# T2 construct: the four immunoglobulin domains and the peroxidase domain (amino acid residue 246-1314); made in house; host or cells: transient transfection
# T2 sequence (Q92626 246-1314): T1 sequence (Q92626 246-1314)
# Procedure: (§1) A previously characterized truncated peroxidasin variant, formerly annotated as hsPxd01-con4 [46], consisting of the four immunoglobulin domains and the peroxidase domain (amino acid residue 246-1314; numbering refers to full length PXDN including the signal peptide as shown in Uniprot Q92626), was used for all experiments using PXDN protein. Cloning, transient transfection, expression and the quality control of the purified recombinant PXDN was performed routinely, as described previously. Molar concentrations are per heme and were determined using an extinction coefficient of 147,500 M^−1 cm^−1 for the heme Soret peak at 412 nm. For the conversion to mg, a molar mass of 140,000 g mol^−1 was used and calculated from the molar concentration per heme. For simplicity we will refer to this variant as peroxidasin (PXDN) throughout the manuscript.
# Dansylglycine (DG) was made up fresh every day and kept in the dark at room temperature. […] We mixed 50 nM PXDN in 100 mM phosphate buffer pH 7.4 with 50 μM DG and 100 mM bromide, before the reaction was started by adding 200 μM of hydrogen peroxide to a final volume of 1.5 mL. Loss of fluorescence was monitored for 60 s using a F-7000 Hitachi (Methrom-Inula, Vienna) fluorometer (λex 340 nm, λem 550 nm). […] The loss of fluorescence was fitted linearly to determine the rate of reaction (min^−1). The effect of the inhibitors was expressed as % inhibition, relative to the rate of the halogenation activity of PXDN without an inhibitor. IC50 values were determined by varying inhibitor concentrations (0–48 μM).
# [3] = biological target: T2, Human peroxidasin (PXDN); assay: Amplex oxidation activity assay in the absence of bromide; format: biochemical
# Procedure: as §1
# (§2) 100 µL of 50 μM Amplex™ UltraRed and 20 μM hydrogen peroxide in 50 mM phosphate buffer pH 7.4 and the respective inhibitor at twice of its final concentration was added to a 96-well plate. […] The plate was incubated in the dark for 15 min at 37 °C before the fluorescence of resorufin, the resulting Amplex oxidation product, was detected using a SpectraMax iD3 fluorescent plate reader from Molecular Devices LLC, San Jose, CA 95134 (λex 544 nm, λem 590 nm, end point measurement). The same assay was also performed with 50 mM bromide present. To determine IC50 values, Amplex oxidation (measured as the end point as described above) was plotted versus the concentration of the inhibitor and expressed as % inhibition.
# [4] = biological target: T2, Human peroxidasin (PXDN); assay: Amplex oxidation activity assay in the presence of bromide; format: biochemical
# Procedure: as §1, §2
# [5] = tested on: collagen IV NCD sulfilimine cross-link formation in isolated ECM from PFHR9 cells; assay: Inhibition of collagen IV cross-linking in decellularized extracellular matrix; format: biochemical
# Procedure: (§3) PFHR9 cells (ATCC) were grown in Dulbecco’s Modified Eagle Medium (Gibco), supplemented with 10% heat-inactivated foetal bovine serum (Moregate) and 1% Penicillin Streptomycin (Gibco). As described previously, cells were seeded in 150 mm cell culture dishes and ECM was isolated. The concentration of the isolated ECM protein was measured (Direct Detect) and the yield was typically ~5 mg per dish. […] After 10 min, 100 μM bromide was added and the cross-link formation was started by adding 100 μM hydrogen peroxide. After 1 h at 37 °C, the reaction was stopped, by adding 1 mM sodium azide, and ECM was digested with 2 mg mL^−1 of collagenase type I (Worthington) for 48 h at 37 °C. The digest was spun (20 kg, RT, 20 min) and the extent of cross-linking of the NCD of collagen IV was determined by the resolution of the supernatant protein on a 12% sodium dodecyl-sulfate polyacrylamide gel electrophoresis (SDS-PAGE). […] Densitometric analyses of both dimer bands (Alliance Uvitec Cambridge imager) were used to determine the extent of inhibition of the cross-link formation. […] Once full confluence was reached, the medium was changed daily, and inhibitors were added at the indicated concentrations in 1 mL of medium for 7 days.
# [6] = tested on: collagen IV NCD sulfilimine cross-link formation of PFHR9 cells; assay: Inhibition of collagen IV cross-linking in cell culture; format: cell-based; details: PFHR9 cells grown with inhibitor for 7 days, Western blot densitometry, n.a. = 50% inhibition not reached
# Procedure: as §3
# [7] = tested on: LPO; design: method as in PMID 8068644; details: cited from earlier work
# [8] = tested on: MPO; details: literature statement; cited from earlier work
# [9] = tested on: PFHR9 cells; assay: Tolerability / toxicity in cell culture; format: cell-based
# Procedure: as §3, with “°C.” for “°C. The digest was spun (20 kg, RT, 20 min) and the extent of cross-linking of the NCD of collagen IV was determined by the resolution of the supernatant protein on a 12% sodium dodecyl-sulfate polyacrylamide gel electrophoresis (SDS-PAGE).”
# [10] = tested on: TPO; design: method as in PMID 8068644; details: cited from earlier work
# [11] = tested on: collagen IV cross-link formation by PXDN; design: method as in PMID 22842973; details: cited from earlier work
# [12] = biological target: T2, Human peroxidasin (PXDN); assay: Reversibility of inactivation of immobilized PXDN (wash, then Amplex assay); format: biochemical; details: 10 min, washed four times; for Irreversible Inhibition: 20 μM inhibitor, then Amplex assay
# Procedure: 200 ng of PXDN in 50 μL PBS was added per well of a Corning high-binding ELISA microplate for 2 h at room temperature. After four PBS washes, the respective inhibitors were added at a final concentration of 20 μM in phosphate buffer pH 7.4, before 10 μM of hydrogen peroxide was added in a final volume of 50 μL. In a control experiment, no hydrogen peroxide was added. After 10 min of incubation, the plates were washed four times with PBS and activity was measured as previously described, by adding 50 μL/well of 50 μM Amplex™ UltraRed Reagent, 20 μM hydrogen peroxide and 50 mM bromide in 50 mM phosphate buffer pH 7.4. The plate was incubated for 30 min in the dark at 37 °C before fluorescence was measured (λex 544 nm, λem 590 nm) and expressed as % activity of the untreated control.
# [13] = 100 μM bromide, 100 μM hydrogen peroxide, 1 h 37 °C, Western blot densitometry, read-out: IC50 DECM
compound,measurement,setting,value
(E)-2-methoxy-4-((2-phtalazine-1yl)hydrazono)methyl)phenol [Hydralazine-vanillin],Mechanism or Reaction Steady and Pre-Steady State Spectrophotometry,[1],good peroxidation substrates
CSc1ccc2c(c1)N(CCC1CCCCN1C)c1ccccc1S2 (stereo not shown) [Thioridazine],inhibition at 24 µM,[2],97 to 99%
same,IC50,"[2]; inhibitor 0–48 μM, read-out: IC50 Halogenation Dansylglycin",1800 nM
same,enhancement of Amplex oxidation,"[3]; 20 μM compound, without bromide",about 50%
same,inhibition of Amplex oxidation in the presence of bromide,"[4]; 20 μM inhibitor, 50 mM bromide","neither activation of Amplex oxidation, nor much inhibition"
same,Mechanism or Reaction Steady and Pre-Steady State Spectrophotometry,[1],"Good substrate for CI, not a substrate for CII"
"O=C(O)CNc1ccc(Cl)cc1 [Cl-PAAA, (2-[(4-chlorophenyl)amino]-acetic acid)]",IC50,[5]; [13],3700 nM
same,IC50 Cells,[6],toxic
"Oc1cc(O)cc(O)c1 [Phloroglucinol, 1,3,5-Trihydroxybenzene]",inhibition at 24 µM,[2],97 to 99%
same,inhibition of LPO,[7],potently inhibits
same,IC50,[3],137 nM
same,inhibition at 20 µM,"[3]; 20 μM inhibitor, without bromide",> 95%
same,IC50,[4],948 nM
same,inhibition at 20 µM,"[4]; 20 μM inhibitor, 50 mM bromide",> 95%
same,Mechanism or Reaction Steady and Pre-Steady State Spectrophotometry,[1],Adduct formation or tight ligand binding
same,inhibition of MPO,[8],not to be inhibited
same,tolerability in cell culture,[9],well tolerated in cell culture and does not impact cell proliferation
same,inhibition of TPO,[10],potently inhibits
same,IC50,"[11]; read-out: IC50 inhibition of collagen IV cross-linking, previously published value",500 nM
same,IC50,[5]; [13],950 nM
same,IC50,[5]; read-out: IC50 inhibition of collagen IV cross-link formation in ECM model,~950 nM
same,Irreversible Inhibition,[12],yes
same,inhibition at 20 µM,"[12]; immobilized PXDN, 20 μM inhibitor without or with 10 μM hydrogen peroxide, read-out: inhibition of PXDN remaining after washing",> 95%
"NNC(=O)CNc1ccccc1F [F-PAAH, 2-[(2-fluorophenyl)amino]-acetohydrazide]",IC50,[3],2400 nM
same,IC50,[4],900 nM
same,inhibition at 20 µM,"[4]; 20 μM inhibitor, 50 mM bromide",90%
same,Mechanism or Reaction Steady and Pre-Steady State Spectrophotometry,[1],forms Compound III
same,IC50,[5]; [13],155000 nM
same,IC50 Cells,[6],ineffective
same,Irreversible Inhibition,[12],no
same,inhibition of PXDN remaining after washing,"[12]; immobilized PXDN, 20 μM inhibitor without or with 10 μM hydrogen peroxide",no statistically significant difference
"NNC(=O)CNc1ccc(Cl)cc1 [Cl-PAAH, (2-[(4-chlorophenyl)amino]-acetohydrazide)]",IC50,[5]; [13],12700 nM
same,IC50,[6]; 168 h,~172000 nM
Cn1cc[nH]c1=S [methimazole],inhibition of collagen IV cross-link formation by PXDN,[11],potently inhibits
"COc1ccc2c(C)nc(N=C(N)N)nc2c1 [Quinazoline, 2-(7-methoxy-4-methylquinazoline-2-yl)guanidine]",IC50,[3],200 nM
same,inhibition at 20 µM,"[4]; 20 μM inhibitor, 50 mM bromide",25 to 70%
same,Mechanism or Reaction Steady and Pre-Steady State Spectrophotometry,[1],Good substrate for CI and CII
NCCc1ccc(O)c(O)c1 [Dopamine],IC50,[3],10 nM
same,inhibition at 20 µM,"[4]; 20 μM inhibitor, 50 mM bromide",25 to 70%
same,Mechanism or Reaction Steady and Pre-Steady State Spectrophotometry,[1],Good substrate for CI and CII
